According to ChEMBL document CHEMBL5696442, “Discovery of type II inhibitors of TGFβ-activated kinase 1 (TAK1) and mitogen-activated protein kinase kinase kinase kinase 2 (MAP4K2)” (J Med Chem, 2015):
The source made the active and inactive calls. No cut-off for these calls is given here.

Assays:
[1] = tested on: Epidermal growth factor receptor (Homo sapiens), P00533 [UNDEFINED MUTATION]; assay: Inhibition of EGFR L747-T751del mutant (unknown origin) at 10 uM by Ambit Kinomescan binding assay relative to control
[2] = target: T1, Serine/threonine-protein kinase NLK (Homo sapiens) (UniProt Q9UBE8); assay: Inhibition of NLK (unknown origin) at 10 uM by Ambit Kinomescan binding assay relative to control; values are per cent of control
T1 sequence (whole entry): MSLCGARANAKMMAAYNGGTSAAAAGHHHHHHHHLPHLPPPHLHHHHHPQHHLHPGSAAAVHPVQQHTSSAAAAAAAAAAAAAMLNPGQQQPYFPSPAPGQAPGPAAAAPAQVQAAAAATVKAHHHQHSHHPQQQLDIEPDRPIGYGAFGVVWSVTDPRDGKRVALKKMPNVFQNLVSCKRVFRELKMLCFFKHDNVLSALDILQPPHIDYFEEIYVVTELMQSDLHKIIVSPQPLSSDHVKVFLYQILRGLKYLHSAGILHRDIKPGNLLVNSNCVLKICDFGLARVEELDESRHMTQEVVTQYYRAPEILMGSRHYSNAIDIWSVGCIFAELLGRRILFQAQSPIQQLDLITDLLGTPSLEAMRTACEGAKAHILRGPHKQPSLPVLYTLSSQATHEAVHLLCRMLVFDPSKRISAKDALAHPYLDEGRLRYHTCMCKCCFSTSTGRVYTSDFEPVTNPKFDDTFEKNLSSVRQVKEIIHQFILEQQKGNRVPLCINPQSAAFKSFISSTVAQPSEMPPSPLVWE

[3] = target: Bone morphogenetic protein receptor type-1A (Homo sapiens) (UniProt P36894); assay: Inhibition of BMPR1A (unknown origin) at 10 uM by Ambit Kinomescan binding assay
[4] = Inhibition of TLK1/2 K2 labeling site in human Huh-7 cells at 10 uM by KiNativ Profiling analysis relative to control; settings: condition cancer
[5] = target: Mitogen-activated protein kinase kinase kinase 11 (Homo sapiens) (UniProt Q16584); assay: Inhibition of MLK3 K2 labeling site in human Huh-7 cells at 1 uM by KiNativ Profiling analysis relative to control; type: cell-based
[6] = target: BMP-2-inducible protein kinase (Homo sapiens) (UniProt Q9NSY1); assay: Inhibition of BIKE (unknown origin) at 10 uM by Ambit Kinomescan binding assay
[7] = target: Calcium/calmodulin-dependent protein kinase type II subunit gamma (Homo sapiens) (UniProt Q13555); assay: Inhibition of CaMK2g Lys2 labeling site in human Huh-7 cell lysate at 1 uM by KiNativ Profiling analysis relative to control; type: subcellular
[8] = target: T2, Interleukin-1 receptor-associated kinase 4 (Homo sapiens) (UniProt Q9NWZ3); assay: Inhibition of IRAK4 Lys2 labeling site in human Huh-7 cells at 1 uM by KiNativ Profiling analysis relative to control; type: cell-based
T2 sequence (whole entry): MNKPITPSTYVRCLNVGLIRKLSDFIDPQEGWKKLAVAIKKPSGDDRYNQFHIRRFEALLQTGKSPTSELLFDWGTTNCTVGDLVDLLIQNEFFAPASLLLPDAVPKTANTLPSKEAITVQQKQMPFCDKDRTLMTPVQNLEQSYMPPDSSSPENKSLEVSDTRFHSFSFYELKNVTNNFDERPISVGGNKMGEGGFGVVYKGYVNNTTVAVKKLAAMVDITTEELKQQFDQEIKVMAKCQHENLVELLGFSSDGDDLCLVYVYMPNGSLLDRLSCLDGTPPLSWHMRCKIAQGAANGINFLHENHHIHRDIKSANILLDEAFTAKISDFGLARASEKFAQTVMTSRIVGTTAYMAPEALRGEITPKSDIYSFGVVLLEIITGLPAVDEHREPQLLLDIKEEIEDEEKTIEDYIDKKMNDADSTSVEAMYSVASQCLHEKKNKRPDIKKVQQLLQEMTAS

[9] = target: T3, Dual specificity mitogen-activated protein kinase kinase 6 (Homo sapiens) (UniProt P52564); assay: Inhibition of MAP2K6 Lys2 labeling site in human Huh-7 cells at 1 uM by KiNativ Profiling analysis relative to control; type: cell-based
T3 sequence (whole entry): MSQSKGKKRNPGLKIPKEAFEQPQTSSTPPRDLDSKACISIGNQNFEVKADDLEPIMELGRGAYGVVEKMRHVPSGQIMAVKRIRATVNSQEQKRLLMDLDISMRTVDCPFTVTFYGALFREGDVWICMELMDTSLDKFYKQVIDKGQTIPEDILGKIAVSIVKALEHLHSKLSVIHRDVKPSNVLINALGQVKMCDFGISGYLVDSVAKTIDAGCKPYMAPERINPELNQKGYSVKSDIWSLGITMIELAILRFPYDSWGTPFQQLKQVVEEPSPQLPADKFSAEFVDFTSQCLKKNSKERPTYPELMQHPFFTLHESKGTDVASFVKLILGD

[10] = target: Fibroblast growth factor receptor 2 (Homo sapiens) (UniProt P21802); assay: Inhibition of FGFR2 (unknown origin) at 1 uM by Ambit Kinomescan binding assay relative to control; values are per cent of control
[11] = target: T4, Inhibitor of nuclear factor kappa-B kinase subunit beta (Homo sapiens) (UniProt O14920); assay: Inhibition of IKKb Lys2 labeling site in human A-375 cells at 5 uM by KiNativ Profiling analysis relative to control; type: cell-based
T4 sequence (whole entry): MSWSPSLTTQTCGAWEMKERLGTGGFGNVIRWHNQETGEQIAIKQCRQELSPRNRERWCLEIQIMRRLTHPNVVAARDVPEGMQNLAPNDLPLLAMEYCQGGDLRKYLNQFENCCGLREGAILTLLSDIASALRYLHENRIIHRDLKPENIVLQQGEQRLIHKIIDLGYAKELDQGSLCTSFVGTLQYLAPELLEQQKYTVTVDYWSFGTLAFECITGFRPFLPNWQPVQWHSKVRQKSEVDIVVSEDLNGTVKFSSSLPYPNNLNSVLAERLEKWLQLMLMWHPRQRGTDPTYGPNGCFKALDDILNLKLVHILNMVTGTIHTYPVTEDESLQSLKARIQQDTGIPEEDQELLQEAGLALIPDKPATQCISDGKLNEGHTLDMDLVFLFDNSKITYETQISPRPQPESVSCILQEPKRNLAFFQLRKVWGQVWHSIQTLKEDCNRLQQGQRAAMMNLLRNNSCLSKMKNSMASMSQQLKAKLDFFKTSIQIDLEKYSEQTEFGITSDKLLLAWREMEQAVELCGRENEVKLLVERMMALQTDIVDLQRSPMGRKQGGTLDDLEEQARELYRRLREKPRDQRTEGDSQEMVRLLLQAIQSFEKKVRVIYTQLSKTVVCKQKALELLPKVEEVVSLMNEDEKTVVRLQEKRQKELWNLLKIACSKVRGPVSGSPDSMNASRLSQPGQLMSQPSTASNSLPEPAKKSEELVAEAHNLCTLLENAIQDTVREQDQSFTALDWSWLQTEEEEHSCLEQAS

Calcium/calmodulin-dependent protein kinase type II subunit gamma (Homo sapiens), sequence (Q13555 whole entry): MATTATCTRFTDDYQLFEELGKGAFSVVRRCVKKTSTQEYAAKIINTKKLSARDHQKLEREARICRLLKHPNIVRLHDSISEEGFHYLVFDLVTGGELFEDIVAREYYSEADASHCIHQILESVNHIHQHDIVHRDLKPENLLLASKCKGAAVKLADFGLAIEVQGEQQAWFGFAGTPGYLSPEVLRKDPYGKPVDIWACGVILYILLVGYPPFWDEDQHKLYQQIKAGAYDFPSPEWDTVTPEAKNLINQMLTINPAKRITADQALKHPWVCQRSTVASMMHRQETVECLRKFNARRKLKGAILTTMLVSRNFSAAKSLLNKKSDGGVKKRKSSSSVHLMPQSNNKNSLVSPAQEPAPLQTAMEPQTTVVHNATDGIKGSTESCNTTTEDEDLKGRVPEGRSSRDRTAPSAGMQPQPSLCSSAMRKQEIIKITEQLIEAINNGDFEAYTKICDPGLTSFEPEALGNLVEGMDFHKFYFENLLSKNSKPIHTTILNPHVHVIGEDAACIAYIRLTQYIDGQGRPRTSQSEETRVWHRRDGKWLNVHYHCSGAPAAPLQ
Bone morphogenetic protein receptor type-1A (Homo sapiens), sequence (P36894 whole entry): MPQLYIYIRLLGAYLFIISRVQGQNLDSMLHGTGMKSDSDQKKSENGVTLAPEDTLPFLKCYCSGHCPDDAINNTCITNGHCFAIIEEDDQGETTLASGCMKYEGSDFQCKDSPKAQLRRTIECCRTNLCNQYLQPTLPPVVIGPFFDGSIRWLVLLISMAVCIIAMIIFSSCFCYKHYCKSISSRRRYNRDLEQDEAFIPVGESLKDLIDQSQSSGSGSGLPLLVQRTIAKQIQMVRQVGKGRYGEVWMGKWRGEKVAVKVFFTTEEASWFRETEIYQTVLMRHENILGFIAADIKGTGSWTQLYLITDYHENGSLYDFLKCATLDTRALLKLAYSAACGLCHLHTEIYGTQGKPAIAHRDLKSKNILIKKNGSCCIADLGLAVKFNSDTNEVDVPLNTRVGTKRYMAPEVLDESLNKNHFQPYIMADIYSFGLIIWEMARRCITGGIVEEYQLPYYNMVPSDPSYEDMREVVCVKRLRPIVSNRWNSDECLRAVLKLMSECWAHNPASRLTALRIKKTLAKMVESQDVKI
Fibroblast growth factor receptor 2 (Homo sapiens), sequence (P21802 22-821 limits assumed): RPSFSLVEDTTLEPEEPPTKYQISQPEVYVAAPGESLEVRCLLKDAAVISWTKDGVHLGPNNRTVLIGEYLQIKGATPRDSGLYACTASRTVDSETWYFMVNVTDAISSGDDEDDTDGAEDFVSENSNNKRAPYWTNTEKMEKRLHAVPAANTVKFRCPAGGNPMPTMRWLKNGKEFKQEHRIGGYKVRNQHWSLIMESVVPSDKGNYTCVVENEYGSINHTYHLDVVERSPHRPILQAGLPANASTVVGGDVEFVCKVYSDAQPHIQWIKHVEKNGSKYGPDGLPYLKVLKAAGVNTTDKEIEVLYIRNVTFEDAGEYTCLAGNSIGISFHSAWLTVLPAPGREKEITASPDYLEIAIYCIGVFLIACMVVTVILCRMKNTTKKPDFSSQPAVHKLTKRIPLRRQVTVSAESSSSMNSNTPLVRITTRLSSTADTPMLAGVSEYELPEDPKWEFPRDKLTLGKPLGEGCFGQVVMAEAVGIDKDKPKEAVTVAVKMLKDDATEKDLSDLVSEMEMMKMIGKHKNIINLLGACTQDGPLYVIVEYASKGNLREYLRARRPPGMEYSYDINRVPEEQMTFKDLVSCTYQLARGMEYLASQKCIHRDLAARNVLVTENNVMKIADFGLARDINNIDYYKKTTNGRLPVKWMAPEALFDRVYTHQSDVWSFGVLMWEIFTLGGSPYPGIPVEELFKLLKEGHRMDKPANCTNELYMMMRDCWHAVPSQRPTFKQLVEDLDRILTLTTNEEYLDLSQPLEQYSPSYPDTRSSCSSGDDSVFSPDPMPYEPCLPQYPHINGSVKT
Epidermal growth factor receptor (Homo sapiens), P00533 [UNDEFINED MUTATION], sequence (P00533 whole entry, looked up, stated change not applied): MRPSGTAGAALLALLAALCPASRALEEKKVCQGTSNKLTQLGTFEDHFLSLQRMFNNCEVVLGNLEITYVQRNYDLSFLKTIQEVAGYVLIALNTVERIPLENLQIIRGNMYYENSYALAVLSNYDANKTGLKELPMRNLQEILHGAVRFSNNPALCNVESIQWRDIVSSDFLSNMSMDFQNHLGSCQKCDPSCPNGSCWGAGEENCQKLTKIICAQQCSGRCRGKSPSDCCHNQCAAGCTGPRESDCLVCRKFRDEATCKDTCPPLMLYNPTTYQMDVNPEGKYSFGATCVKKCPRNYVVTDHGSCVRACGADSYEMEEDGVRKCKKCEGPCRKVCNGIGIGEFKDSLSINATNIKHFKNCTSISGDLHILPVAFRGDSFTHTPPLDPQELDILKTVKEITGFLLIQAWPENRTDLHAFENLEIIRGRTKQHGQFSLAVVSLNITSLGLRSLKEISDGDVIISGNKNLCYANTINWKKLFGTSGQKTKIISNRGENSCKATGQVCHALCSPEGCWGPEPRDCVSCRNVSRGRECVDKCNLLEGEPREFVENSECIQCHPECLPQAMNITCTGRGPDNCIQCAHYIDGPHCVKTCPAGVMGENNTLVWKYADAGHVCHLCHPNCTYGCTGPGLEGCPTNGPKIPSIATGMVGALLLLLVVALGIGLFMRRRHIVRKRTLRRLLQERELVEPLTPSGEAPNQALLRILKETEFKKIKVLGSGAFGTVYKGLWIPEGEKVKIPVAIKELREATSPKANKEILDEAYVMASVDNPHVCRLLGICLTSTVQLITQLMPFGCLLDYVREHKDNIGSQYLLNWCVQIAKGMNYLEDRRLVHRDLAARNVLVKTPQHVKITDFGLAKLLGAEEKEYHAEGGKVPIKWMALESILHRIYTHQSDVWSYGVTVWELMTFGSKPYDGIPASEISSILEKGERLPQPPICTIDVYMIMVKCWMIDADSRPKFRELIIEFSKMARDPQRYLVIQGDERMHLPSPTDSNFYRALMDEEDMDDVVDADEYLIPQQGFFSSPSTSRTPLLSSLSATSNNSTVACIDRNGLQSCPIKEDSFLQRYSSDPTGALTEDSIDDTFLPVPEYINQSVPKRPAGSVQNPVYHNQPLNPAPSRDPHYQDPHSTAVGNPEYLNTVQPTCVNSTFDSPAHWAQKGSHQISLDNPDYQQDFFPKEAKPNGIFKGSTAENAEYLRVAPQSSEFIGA
Mitogen-activated protein kinase kinase kinase 11 (Homo sapiens), sequence (Q16584 whole entry, looked up): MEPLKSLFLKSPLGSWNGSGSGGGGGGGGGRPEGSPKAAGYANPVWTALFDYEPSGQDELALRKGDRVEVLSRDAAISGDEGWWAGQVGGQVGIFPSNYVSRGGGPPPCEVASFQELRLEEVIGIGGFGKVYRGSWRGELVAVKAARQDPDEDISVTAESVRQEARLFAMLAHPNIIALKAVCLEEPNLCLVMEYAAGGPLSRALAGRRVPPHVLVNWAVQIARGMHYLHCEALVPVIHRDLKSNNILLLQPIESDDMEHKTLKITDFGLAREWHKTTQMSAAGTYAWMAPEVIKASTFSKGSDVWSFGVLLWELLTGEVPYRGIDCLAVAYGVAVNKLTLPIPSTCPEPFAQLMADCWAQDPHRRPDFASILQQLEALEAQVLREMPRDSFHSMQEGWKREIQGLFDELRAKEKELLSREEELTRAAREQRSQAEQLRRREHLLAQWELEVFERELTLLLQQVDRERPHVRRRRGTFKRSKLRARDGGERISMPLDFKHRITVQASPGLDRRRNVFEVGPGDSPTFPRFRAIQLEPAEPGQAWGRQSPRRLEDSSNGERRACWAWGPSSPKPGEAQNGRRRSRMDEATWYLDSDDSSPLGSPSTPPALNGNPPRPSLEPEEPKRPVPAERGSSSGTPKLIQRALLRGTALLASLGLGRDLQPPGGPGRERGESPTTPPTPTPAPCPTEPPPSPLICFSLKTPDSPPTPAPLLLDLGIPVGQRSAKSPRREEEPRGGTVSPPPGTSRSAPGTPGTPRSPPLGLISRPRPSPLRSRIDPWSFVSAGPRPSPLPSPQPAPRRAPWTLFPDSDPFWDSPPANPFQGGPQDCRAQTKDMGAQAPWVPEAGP

## CCN1CCN(Cc2ccc(NC(=O)c3ccc(C)c(Oc4ccnc5[nH]ccc45)c3)cc2C(F)(F)F)CC1
[1]
  inhibition: 1.1%
[2]
  percent of control: 14%
[3]
  inhibition: inactive
[4]
  inhibition at 10 µM: -23.9%
[5]
  inhibition: -1.6%
[6]
  inhibition: inactive

## CNc1cc(Oc2cc(C(=O)Nc3cc(N4CCN(C)CC4)cc(C(F)(F)F)c3)ccc2C)ncn1
[7]
  inhibition: 0.7%
[8]
  inhibition: 0.4%
[9]
  inhibition: -1.5%

## CCN1CCN(Cc2ccc(NC(=O)c3ccc(C)c(/C=C/c4cnc5[nH]ccc5c4OC)c3)cc2C(F)(F)F)CC1
[10]
  percent of control: 5.4%
[11]
  inhibition: 50.5%
